From patent US20060241124A1, “Combinations comprising paroxetine and 2- (s) - (4-fluoro-2-methyl-phenyl) -piperazine-1-carboxylic acid [1- (r)- (3,5-bis-trifluoro-2-methyl-phenyl) -ethyl]-methyl amide for treatment of depression and/or anxiety” (priority 2003, published 2006) come the findings set out here.

Molecules are shown by their SMILES. Where a name gives a salt, the structure may show the parent alone.

The test system of the test is mongolian gerbils. The test is described as follows: gerbil social interaction model (time spent in active social interactions). Conditions: one hour after administration. It counts as in vivo. The protocol:
Paroxetine hydrochloride hemihydrate (0.3 mg/kg p.o of the paroxetine measured as the free base.), 2-(S)-(4-Fluoro-2-methyl-phenyl)-piperazine-1-carboxylic acid [1-(R)-(3,5-bis-trifluoromethyl-phenyl)-ethyl]-methyl-amide methansulphonate (hereinafter compound A) (0.1 mg/kg i.p of the compound A measured as the free base) and a combination of paroxetine (0.3 mg/kg p.o. of the paroxetine measured as the free base) and compound A (0.1 mg/kg i.p. of the compound A measured as the free base) were administered independently in mongolian gerbils to assess the effect on time spent in active social interactions.
The results obtained one hour after administration, expressed as a percentage variation of the time spent in active social interactions by each animal in respect to the value obtained by treatment of control animals, are summarised in table 1.

`CS(=O)(=O)O.Cc1cc(F)ccc1[C@H]1CNCCN1C(=O)N(C)[C@H](C)c1cc(C(F)(F)F)cc(C(F)(F)F)c1` [Compound A, 2-(S)-(4-Fluoro-2-methyl-phenyl)-piperazine-1-carboxylic acid [1-(R)-(3,5-bis-trifluoromethyl-phenyl)-ethyl]-methyl-amide methansulphonate]: the “% variation of the time spent in active social interactions in respect to control animals” value (0.1 mg/kg i.p. (measured as the free base)) is −8%.
As to `Fc1ccc([C@@H]2CCNC[C@H]2COc2ccc3c(c2)OCO3)cc1` [Paroxetine hydrochloride hemihydrate, (−) trans-4-(4′-fluorophenyl)3-(3′-4′-methylenedioxyphenoxymethyl)piperidine], the “% variation of the time spent in active social interactions in respect to control animals” value (0.3 mg/kg p.o. (measured as the free base)) was −2%.
